Read-outs that look alike come from different tables or passages of the source.
Tests used:
HLA-DR2 = HLA-DR2 (Homo sapiens, UniProt P01903+P01911); settings: cited from earlier work
HLA-DR3 [1] = tested on: HLA-DR3
HLA-DR1 [2] = target: T1, HLA-DR1 (Homo sapiens, UniProt P01903+P01911, A100R/D57E/F55L/F60I/F76Y/I96L/L162R/M171V/P40L/Q125E/R42F/V115G/Y59C); settings: cited from earlier work; for known binding of peptide to HLA-DR1: Sidney et al., 2002
HLA-DR3 [3] = settings: cited from earlier work; for known binding of peptide to HLA-DR3: Sidney et al., 2002
HLA-DRB1*01:01 = HLA-DRB1*01:01 (Homo sapiens, UniProt P01903+P01911, A100R/D57E/F55L/F60I/F76Y/I96L/L162R/M171V/P40L/Q125E/R42F/V115G/Y59C); experiment: Peptide-MHC binding assay: conjugate incubated with recombinant MHC, captured with anti-HLA-DR antibody (L243) beads, qPCR
HLA-DR1 [4] = target: T1, HLA-DR1; format: binding; design: biotin (biotinylated)

In the case of “MBP(148-162): peptide of human myelin basic protein, residues 148-162 (YLATASTMDHARHGF; UniProt P02686 148-162, looked up, fragment)”, the “affinity of peptide for purified DR2” value (HLA-DR2) is listed as “lower but significant”.
In the case of “MBP(85-99): peptide of human myelin basic protein, residues 85-99 (PGSRPHLIRLFSRDA; UniProt P02686 85-99, looked up, fragment)”, the “affinity of peptide for purified DR2” value (HLA-DR2) is listed as “high affinity”.
In the case of YPKYVKQNTLKLAT, the “binding of peptide-cDNA conjugate to MHC molecule” value (from here on “binding of peptide-cDNA conjugate”) (HLA-DR3 [1]) is given as “not to the other HLA-DR family member”, the “known binding of peptide to HLA-DR1” value (HLA-DR1 [2]) is given as “bind” and the “known affinity of peptide for the HLA-DR1 molecule” value (HLA-DR1 [2]) is given as “high”. The “known binding of peptide to HLA-DRB1*01:01” value (HLA-DR1 [2]) was “bind”, the “known binding of peptide to HLA-DR3” value (HLA-DR3 [3]) was “without cross-binding” and the “enrichment in the DR1 condition compared to beads only” value (HLA-DRB1*01:01) was roughly 1000 fold. The “enrichment of conjugate binding to DR1 over beads” value (HLA-DRB1*01:01) was roughly 100 fold, the “binding of peptide-cDNA conjugate” value (HLA-DR1 [4]) was “bound to the expected MHC molecule” and the “profile of binding to HLA-DR1” value (HLA-DR1 [4]) was “high”.
In the case of YKTIAFDEEARR, the “binding of peptide-cDNA conjugate” value (HLA-DR3 [1]) is given as “bound to the expected MHC molecule”, the “known binding of peptide to HLA-DR1” value (HLA-DR1 [2]) is given as “without cross-binding” and the “known binding of peptide to HLA-DRB1*01:01” value (HLA-DR1 [2]) is given as “not bind”. The “known binding of peptide to HLA-DR3” value (HLA-DR3 [3]) was “bind”, the “known binding of peptide to HLA-DRB1*03:01” value (HLA-DR3 [3]) was “bind” and the “enrichment in the DR1 condition compared to beads only” value (HLA-DRB1*01:01) was “no such enrichment”. For the same substance, the “enrichment of signal in the DR1 condition compared to beads only” value (DR1) was roughly 1000 fold and the “binding of peptide-cDNA conjugate” value (HLA-DR1 [4]; biotinylated HLA-DR1, overnight incubation, gel electrophoresis and qPCR readouts) was “not to the other HLA-DR family member”.
For YPKAVKQNTLKLAT [YP (Y4A)], the “known affinity of peptide for the HLA-DR1 molecule” value (HLA-DR1 [2]) is listed as “low”, the “profile of binding to HLA-DR1” value (HLA-DR1 [4]; conjugates incubated and detected as a mixture (3-plex), qPCR) is listed as “low” and the “profile of binding to HLA-DR1” value (HLA-DR1 [4]; conjugates present individually (1-plex), qPCR) is listed as “low”.

Reference: patent US11913952B2, “Methods for detecting peptide/MHC/TCR binding” (Prognosys Biosciences, Inc., priority 2013, dated 2024)
